Experimental data from US20260347399A1, “BRAIN PENETRATING PEPTIDES AND METHODS OF USE” (priority 2022, published 2026).

What was measured:
mouse brain [1] = assay: In vivo phage display with CX4CYX library; settings: for R1 reads: round 1; for R3 reads: round 3; for R3 > R1 (ratio of sequencing reads between round 3 and round 1): round 3 / round 1
Description: In vivo phage display with CX4CYX library was performed in three selection rounds. Phage library was injected intravenously to Balb/c mice and allowed to circulate for one hour. After circulation, the animals were anesthetized and perfused intracardially with acid and detergent buffers. Brain and control organs were collected and homogenized in 1% NP40-LB. Bound phages were rescued by amplification in E. coli and their genomic DNA was sequenced by Ion Torrent next generation DNA sequencing system.
A novel phage library CX4CYX was constructed based on the alanine-leucine screen to find new brain homing peptides). This knowledge directed us to construct a novel phage library CX4CYX (X—any amino acid), where Cys1, Cys6 and Tyr7 remained in their intact positions, and the four amino acid variable-domain laid between the cysteines, and one amino acid variability after Tyr7. Three rounds of phage bio-panning was performed to allow enrichment of peptides in the brain. Again acid and detergent buffers were used for perfusion to remove non-specifically bound phages from the brain after systemic administration of phage library (round 1) and recovered brain phage pools (round 2 and 3). HTS reads from round 1 to round 3 indicated decent enrichment of in-frame peptides in the brain (Table 6).

mouse brain [2] = assay: In vivo T7 phage display (biopanning), high throughput sequencing of brain phage; settings: for reads associated with each sequence (Ion torrent sequencing): Round 5 of biopanning
Description: The in vivo phage screening in male Balb/C mice was performed as described in (Põšnograjeva et al., 2022) with some alterations. To reduce the background of unspecific phages in the brain, 4.5×10^10 pfu of UV-inactivated control insertless T7 phage was injected i.p. 30 min later, CX7C naïve T7 phage library or the phage pool recovered from the brain in the previous round of biopanning was injected i.v. and allowed to circulate for 30 min. The mice were anesthetized and perfused with PBS intracardially. The brain was removed, homogenized in LB-NP40 (1%) and the phages in the lysate were rescued by amplification in semi-solid media in E. coli strain BLT5403. Peptide-encoding portion of the phage genome was sequenced using Ion Torrent high throughput sequencing (HTS). 8 mice were used in the first round of biopanning (R1) to prevent creating a narrow bottleneck of selection in the first round of biopanning. 2 mice were used for all subsequent rounds (R2 . . . . R5). R5 was repeated with the additional step of isolating brain CD31+ cells from CD31− cells by magnetic-activated cell sorting. The mouse brains were dissociated using Dounce tissue grinder and Adult Brain Dissociation Kit (#130-107-677) and CD31+ cells were isolated from all the other brain cells using CD31 MicroBeads (#130-097-418) following the manufacturer's protocol for isolation and cultivation of endothelial cells from adult mouse brain. The cells were lysed in LB-NP40 (1%) and the samples were further processed following the same steps with samples of whole brain.
To identify peptides that accumulate in mouse brain, cross the blood-brain barrier and reach the brain parenchyma cells, in vivo T7 phage display was used. For round 1 of biopanning, naïve CX7C T7 peptide-phage library was injected into mice i.v. The phages accumulated in brain were rescued to be used as input in a subsequent round of biopanning. A consistent increase in the % of injected phage accumulating in the brain tissue through rounds 1 . . . 5 of biopanning was observed (FIG. 1A; To assess the % of injected phage that accumulated in the brain throughout the five rounds of biopanning (R1-R5), Peptide-phages were injected i.v. and following 30 min circulation mice were perfused with PBS. The phages rescued from the brain were reamplified and injected for a subsequent round of biopanning). The 5th round of bio-panning was then repeated with an additional step of isolating CD31+ brain endothelial cells from CD31− brain cells to detect peptides that not only accumulate in the brain, but also penetrate the endothelial cell layer lining the brain blood vessels (FIG. 1B; The total amount of phage rescued from mouse brain CD31+ and CD31− cell fractions after R5 with the additional step of isolating brain endothelial (CD31+) cells from all the other brain cells (parenchyma cells; CD31−)).
A complete listing of peptides that were identified from Ion Torrent high throughput sequencing from bio-panning Round 5 is set forth in Table 1B.

[3] = mouse 325, total reads in sample 135061
[4] = mouse 326, total reads in sample 218048

Substance: CACPLCY [CAGPLCY]
- R1 reads (mouse brain [1]): 3 reads
- R3 reads (mouse brain [1]): 1232 reads
- R3 > R1 (ratio of sequencing reads between round 3 and round 1) (mouse brain [1]): 411

Substance: CAGSMCY
- R1 reads (mouse brain [1]): 14 reads
- R3 reads (mouse brain [1]): 9077 reads
- R3 > R1 (ratio of sequencing reads between round 3 and round 1) (mouse brain [1]): 648

Substance: CEGALCY
- R1 reads (mouse brain [1]): 17 reads
- R3 reads (mouse brain [1]): 39863 reads
- R3 > R1 (ratio of sequencing reads between round 3 and round 1) (mouse brain [1]): 2345

Substance: CEGSLCY
- R1 reads (mouse brain [1]): 3 reads
- R3 reads (mouse brain [1]): 2833 reads
- R3 > R1 (ratio of sequencing reads between round 3 and round 1) (mouse brain [1]): 944

Substance: CKGSNCY
- R1 reads (mouse brain [1]): 4 reads
- R3 reads (mouse brain [1]): 2037 reads
- R3 > R1 (ratio of sequencing reads between round 3 and round 1) (mouse brain [1]): 509

Substance: CMGDLCY
- R1 reads (mouse brain [1]): 3 reads
- R3 reads (mouse brain [1]): 837 reads
- R3 > R1 (ratio of sequencing reads between round 3 and round 1) (mouse brain [1]): 279

Substance: CQGALCY
- R1 reads (mouse brain [1]): 27 reads
- R3 reads (mouse brain [1]): 8612 reads
- R3 > R1 (ratio of sequencing reads between round 3 and round 1) (mouse brain [1]): 319

Substance: CQGSNCY
- R1 reads (mouse brain [1]): 4 reads
- R3 reads (mouse brain [1]): 1202 reads
- R3 > R1 (ratio of sequencing reads between round 3 and round 1) (mouse brain [1]): 301

Substance: CTGSLCY
- R1 reads (mouse brain [1]): 64 reads
- R3 reads (mouse brain [1]): 43464 reads
- R3 > R1 (ratio of sequencing reads between round 3 and round 1) (mouse brain [1]): 679

Substance: CTGSMCY
- R1 reads (mouse brain [1]): 3 reads
- R3 reads (mouse brain [1]): 841 reads
- R3 > R1 (ratio of sequencing reads between round 3 and round 1) (mouse brain [1]): 280

Substance: CVCANCY [CVGANCY]
- R1 reads (mouse brain [1]): 24 reads
- R3 reads (mouse brain [1]): 7359 reads
- R3 > R1 (ratio of sequencing reads between round 3 and round 1) (mouse brain [1]): 307

Substance: CVGQLCY
- R1 reads (mouse brain [1]): 12 reads
- R3 reads (mouse brain [1]): 5355 reads
- R3 > R1 (ratio of sequencing reads between round 3 and round 1) (mouse brain [1]): 446

Substance: CVGTLCY
- R1 reads (mouse brain [1]): 21 reads
- R3 reads (mouse brain [1]): 11631 reads
- R3 > R1 (ratio of sequencing reads between round 3 and round 1) (mouse brain [1]): 554

Substance: IMLGDPILASRRVISRAKL
- reads associated with each sequence (Ion torrent sequencing) (mouse brain [2]; [3]): 68 reads
- reads associated with each sequence (Ion torrent sequencing) (mouse brain [2]; [4]): 116 reads

Substance: MIGDANSSS
- reads associated with each sequence (Ion torrent sequencing) (mouse brain [2]; [3]): 2370 reads
- reads associated with each sequence (Ion torrent sequencing) (mouse brain [2]; [4]): 2197 reads

Substance: MIGDPILAGRRIVSRAKLAAALE
- reads associated with each sequence (Ion torrent sequencing) (mouse brain [2]; [3]): 315 reads
- reads associated with each sequence (Ion torrent sequencing) (mouse brain [2]; [4]): 480 reads

Substance: MIGDPILASRRVISR
- reads associated with each sequence (Ion torrent sequencing) (mouse brain [2]; [3]): 77 reads
- reads associated with each sequence (Ion torrent sequencing) (mouse brain [2]; [4]): 76 reads

Substance: MIGDPILASRRVISRAKLAA
- reads associated with each sequence (Ion torrent sequencing) (mouse brain [2]; [3]): 254 reads
- reads associated with each sequence (Ion torrent sequencing) (mouse brain [2]; [4]): 286 reads

Substance: MIGDPNFAIRAVISRAKLAAALE
- reads associated with each sequence (Ion torrent sequencing) (mouse brain [2]; [3]): 543 reads
- reads associated with each sequence (Ion torrent sequencing) (mouse brain [2]; [4]): 825 reads

Substance: MLGDPILASERVISRAKLAAASS
- reads associated with each sequence (Ion torrent sequencing) (mouse brain [2]; [3]): 47 reads
- reads associated with each sequence (Ion torrent sequencing) (mouse brain [2]; [4]): 169 reads

Substance: MLGDPILASRAVISRAKLAAA
- reads associated with each sequence (Ion torrent sequencing) (mouse brain [2]; [3]): 350 reads
- reads associated with each sequence (Ion torrent sequencing) (mouse brain [2]; [4]): 399 reads

Substance: MLGDPILASRAVISRAKLAAALS
- reads associated with each sequence (Ion torrent sequencing) (mouse brain [2]; [3]): 54 reads
- reads associated with each sequence (Ion torrent sequencing) (mouse brain [2]; [4]): 194 reads

Substance: MLGDPILASRAVISRAKLAAHSS
- reads associated with each sequence (Ion torrent sequencing) (mouse brain [2]; [3]): 84 reads
- reads associated with each sequence (Ion torrent sequencing) (mouse brain [2]; [4]): 142 reads

Substance: MLGDPILASRRVISRAK
- reads associated with each sequence (Ion torrent sequencing) (mouse brain [2]; [3]): 67 reads
- reads associated with each sequence (Ion torrent sequencing) (mouse brain [2]; [4]): 100 reads

Substance: MLGDPILASRRVISRAKLA
- reads associated with each sequence (Ion torrent sequencing) (mouse brain [2]; [3]): 150 reads
- reads associated with each sequence (Ion torrent sequencing) (mouse brain [2]; [4]): 172 reads

Substance: MLGDPILASRRVISRAKLAAAFE
- reads associated with each sequence (Ion torrent sequencing) (mouse brain [2]; [3]): 46 reads
- reads associated with each sequence (Ion torrent sequencing) (mouse brain [2]; [4]): 269 reads

Substance: MLGDPILASRRVISRAKLAAAL
- reads associated with each sequence (Ion torrent sequencing) (mouse brain [2]; [3]): 1495 reads
- reads associated with each sequence (Ion torrent sequencing) (mouse brain [2]; [4]): 2334 reads

Substance: MLGDPILASRRVISRAKLAAALD
- reads associated with each sequence (Ion torrent sequencing) (mouse brain [2]; [3]): 34 reads
- reads associated with each sequence (Ion torrent sequencing) (mouse brain [2]; [4]): 119 reads

Substance: MLGDPILASRRVISRAKLAAALE [Pep1]
- reads associated with each sequence (Ion torrent sequencing) (mouse brain [2]; [3]): 80229 reads
- reads associated with each sequence (Ion torrent sequencing) (mouse brain [2]; [4]): 132268 reads
- representation of peptide sequence in brain (mouse brain [2]; whole brain after round 5, CD31+ and CD31- brain cell fractions): most represented peptide sequence in the whole brain after round 5 of bio-panning as well as in CD31+ and CD31− brain cell fractions

Substance: MLGDPILASRRVISRAKLAAALG
- reads associated with each sequence (Ion torrent sequencing) (mouse brain [2]; [3]): 33 reads
- reads associated with each sequence (Ion torrent sequencing) (mouse brain [2]; [4]): 108 reads

Substance: MLGDPILASRRVISRAKLAATLE
- reads associated with each sequence (Ion torrent sequencing) (mouse brain [2]; [3]): 39 reads
- reads associated with each sequence (Ion torrent sequencing) (mouse brain [2]; [4]): 143 reads

Substance: MLGDPILASRRVISRAKLAAVLE
- reads associated with each sequence (Ion torrent sequencing) (mouse brain [2]; [3]): 51 reads
- reads associated with each sequence (Ion torrent sequencing) (mouse brain [2]; [4]): 292 reads

Substance: MLGDPILASRRVISRAKLADALE
- reads associated with each sequence (Ion torrent sequencing) (mouse brain [2]; [3]): 142 reads
- reads associated with each sequence (Ion torrent sequencing) (mouse brain [2]; [4]): 359 reads

Substance: MLGDPILASRRVISRAKLEAALE
- reads associated with each sequence (Ion torrent sequencing) (mouse brain [2]; [3]): 129 reads
- reads associated with each sequence (Ion torrent sequencing) (mouse brain [2]; [4]): 251 reads

Substance: MLGDPNIVAKLAAALE
- reads associated with each sequence (Ion torrent sequencing) (mouse brain [2]; [3]): 271 reads
- reads associated with each sequence (Ion torrent sequencing) (mouse brain [2]; [4]): 368 reads

Substance: MLGDPNLARRRVISRAKLAAAL
- reads associated with each sequence (Ion torrent sequencing) (mouse brain [2]; [3]): 89 reads
- reads associated with each sequence (Ion torrent sequencing) (mouse brain [2]; [4]): 188 reads

Substance: MLGDPNLARRRVISRAKLAAALE
- reads associated with each sequence (Ion torrent sequencing) (mouse brain [2]; [3]): 4716 reads
- reads associated with each sequence (Ion torrent sequencing) (mouse brain [2]; [4]): 8755 reads

Substance: MLGDPNS
- reads associated with each sequence (Ion torrent sequencing) (mouse brain [2]; [3]): 57 reads
- reads associated with each sequence (Ion torrent sequencing) (mouse brain [2]; [4]): 84 reads

Substance: MLGDPNSC
- reads associated with each sequence (Ion torrent sequencing) (mouse brain [2]; [3]): 84 reads
- reads associated with each sequence (Ion torrent sequencing) (mouse brain [2]; [4]): 216 reads

Substance: MLGDPNSCTEGTRVTC
- reads associated with each sequence (Ion torrent sequencing) (mouse brain [2]; [3]): 1533 reads
- reads associated with each sequence (Ion torrent sequencing) (mouse brain [2]; [4]): 2339 reads

Substance: MLGDPNSSSVDKLAAALE
- reads associated with each sequence (Ion torrent sequencing) (mouse brain [2]; [3]): 674 reads
- reads associated with each sequence (Ion torrent sequencing) (mouse brain [2]; [4]): 588 reads
